According to patent US20250368627A1, “PYRAZOLESULFONAMIDES AS ANTITUMOR AGENTS” (Peloton Therapeutics, Inc., a fully owned subsidiary of …, priority 2019, published 2025):

Legend:
[1] = target: T1, DDB1DB/DCAF15 and RBM39 R1R2 complex (Homo sapiens, UniProt Q14498+Q66K64); assay: DCAF15 RBM39 Complex Formation Assay (FRET); assay type: binding; conditions: FRET ratio Em 665/Em 615, incubated overnight at 4° C.
T1 construct: Amino acids 150 to 331 of RBM39 were cloned into pGEX4T3; GST (from vector pGEX4T3); TEV cleavage site (N); made in house; host or cells: DDB1DB/His-DCAF15: baculovirus/Sf9 co-expression; RBM39 R1R2: E. coli (pGEX4T3)
Source text: LANCE Eu-W1024 Anti-6×His and SureLight Allophycocyanin-anti-FLAG antibodies were purchased from Perkin Elmer. Human DDB1DB and His-tagged DCAF15 were co-expressed in baculovirus/sf9 system. While full length DDB1 contains three 7-bladed propellers termed A, B, and C, DDB1DB has only propeller A (amino acids 1 to 395) and C (amino acids 709-1140). The His-tagged DCAF15 contains six histidine residues directly preceding the DCAF15 sequence without any linker. An RBM39 fragment containing RRM1 and RRM2 was expressed in E. coli. Amino acids 150 to 331 of RBM39 were cloned into pGEX4T3 with an N-terminal TEV cleavage site and a C-terminal FLAG tag.
A compound of the present disclosure in DMSO (2 μL) was transferred to a 384-well assay plate. Compound was added in 14 points, 3-fold serial dilution (1 μM to 0.6 pico molar) in DMSO. […] FRET assay buffer (25 mM HEPES, pH 7.5, 100 mM NaCl, […], 0.5 mM TCEP, 0.005% Tween-20, 0.2 nM Eu—W1024 Anti-6×His, 50 nM SureLight Allophycocyanin-anti-FLAG, 20 nM DDB1DB/DCAF15, 50 nM RBM39 R1R2) was added and the resulting solution was incubated overnight at 4° C. The plate was placed in a plate reader (Spark 10) with excitation at 1=340 nm and emissions monitored at 1=665 nm and 1=615 nm, and the FRET ratio (Em 665/Em 615) was determined. Low signal controls containing no compound and high signal controls containing 10 mM indisulam were measured for each plate.
EC50 values were calculated using Dotmatics template equation for 4-parameter fit. Results are expressed as % formation using the following equation: […]

[2] = system: HCT116 human colorectal carcinoma cells; assay: CellTiter-Glo Luminescent Cell Viability Assay; assay type: cell-based; conditions: HCT-116, 72 h, 3 days
Protocol: HCT116 human colorectal carcinoma cells were used in these experiments. HCT116 cells were obtained from ATCC. CellTiter-Glo® Luminescent Cell Viability Assay Reagent was obtained from Promega.
About 3,000 cells were seeded into 96-well plate with […] of media (DMEM supplemented with 10% FBS, 100 units penicillin, and […] streptomycin per mL) the day before the experiment. For compound treatment, the master plate was prepared as follows: 100× compound stocks were prepared in a 96-well plate by 1 to 3 serial dilutions of 0.5 mM DMSO stocks. Each master plate contained serial dilution of 8 compounds, including the control compound E7820. […] of 100× compound stock was added to each well of the assay plate to give final concentrations of […]. Each concentration was tested in triplicate. After 3 days, cell viability was determined using CellTiter-Glo Luminescent Cell Viability Assay Reagent following the manufacturer's recommended protocol. Briefly, […] of CellTiter-Glo reagent was added to each well of the assay plate and the contents were mixed for 3 minutes at 600 rpm on a shaker (Thermomixer R). The plate was immediately placed in a plate reader (Synergy 2) and the luminescence signal (0.5 second per well integration time) was determined. IC50 values were calculated using Dotmatics software.

T1 sequence (Q66K64 whole entry, the tested form may be a part): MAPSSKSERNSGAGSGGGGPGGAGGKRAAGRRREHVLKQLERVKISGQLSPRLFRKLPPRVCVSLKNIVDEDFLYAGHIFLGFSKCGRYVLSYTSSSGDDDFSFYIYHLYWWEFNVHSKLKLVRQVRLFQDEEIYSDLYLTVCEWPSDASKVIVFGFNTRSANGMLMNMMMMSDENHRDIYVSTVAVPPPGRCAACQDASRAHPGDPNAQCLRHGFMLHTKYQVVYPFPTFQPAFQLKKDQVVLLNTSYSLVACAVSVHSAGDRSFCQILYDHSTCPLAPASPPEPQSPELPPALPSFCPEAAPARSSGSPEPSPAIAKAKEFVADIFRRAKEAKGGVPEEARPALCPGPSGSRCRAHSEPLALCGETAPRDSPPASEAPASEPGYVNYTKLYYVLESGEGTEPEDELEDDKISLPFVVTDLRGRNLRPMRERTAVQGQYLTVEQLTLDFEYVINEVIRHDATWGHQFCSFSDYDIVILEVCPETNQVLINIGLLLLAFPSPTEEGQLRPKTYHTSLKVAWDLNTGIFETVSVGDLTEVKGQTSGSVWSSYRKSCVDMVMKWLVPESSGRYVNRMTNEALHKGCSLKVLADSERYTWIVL
T1 sequence (Q14498 150-331): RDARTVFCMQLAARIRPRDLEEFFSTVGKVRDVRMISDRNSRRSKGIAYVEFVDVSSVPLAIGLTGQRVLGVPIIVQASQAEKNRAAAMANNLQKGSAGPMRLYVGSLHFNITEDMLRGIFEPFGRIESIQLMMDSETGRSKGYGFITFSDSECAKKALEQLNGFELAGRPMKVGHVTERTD
T1 sequence (Q16531 with tags, fused parts or gaps DEL396-708 partner): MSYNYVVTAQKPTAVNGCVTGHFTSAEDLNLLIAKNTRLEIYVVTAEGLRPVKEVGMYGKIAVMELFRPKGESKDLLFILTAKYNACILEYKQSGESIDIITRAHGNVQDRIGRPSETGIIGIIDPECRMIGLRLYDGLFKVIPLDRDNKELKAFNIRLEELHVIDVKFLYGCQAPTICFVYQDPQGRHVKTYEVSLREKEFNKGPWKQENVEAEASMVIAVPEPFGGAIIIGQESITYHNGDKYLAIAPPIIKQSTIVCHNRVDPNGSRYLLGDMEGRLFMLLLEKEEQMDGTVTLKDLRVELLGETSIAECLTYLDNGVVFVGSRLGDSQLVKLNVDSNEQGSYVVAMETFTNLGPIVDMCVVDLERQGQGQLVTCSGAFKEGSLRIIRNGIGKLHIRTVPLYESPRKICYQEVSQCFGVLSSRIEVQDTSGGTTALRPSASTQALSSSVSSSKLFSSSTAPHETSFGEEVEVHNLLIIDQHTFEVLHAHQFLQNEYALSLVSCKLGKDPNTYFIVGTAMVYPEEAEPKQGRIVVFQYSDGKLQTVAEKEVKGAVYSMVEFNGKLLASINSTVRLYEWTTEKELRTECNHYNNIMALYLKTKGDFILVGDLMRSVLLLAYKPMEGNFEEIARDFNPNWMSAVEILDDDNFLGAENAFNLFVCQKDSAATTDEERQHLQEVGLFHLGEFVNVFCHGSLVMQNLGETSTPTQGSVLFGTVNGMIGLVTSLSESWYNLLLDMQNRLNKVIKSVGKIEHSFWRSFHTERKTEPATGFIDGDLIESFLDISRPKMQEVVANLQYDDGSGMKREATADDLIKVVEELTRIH

Row | IC50 [1] [nM] | EC50 [2] [nM] | SMILES
1 | < 250 | 250 to 1000 | CS(=O)(=O)CCn1cc(S(=O)(=O)Nc2cccc3c(Cl)c[nH]c23)cn1 [Compound 9, N-(3-chloro-1H-indol-7-yl)-1-(2-methylsulfonylethyl)pyrazole-4-sulfonamide]
2 | < 250 | < 250 | Cc1ccc(NS(=O)(=O)c2cnn(C(C)(C)CCO)c2)c2[nH]cc(C#N)c12 [Compound 229, N-(3-cyano-4-methyl-1H-indol-7-yl)-1-(4-hydroxy-2-methylbutan-2-yl)-1H-pyrazole-4-sulfonamide]
3 | < 250 | 250 to 1000 | NC(=O)Cn1cc(S(=O)(=O)Nc2cccc3c(Cl)c[nH]c23)cn1 [Compound 16, 2-[4-[(3-chloro-1H-indol-7-yl)sulfamoyl]pyrazol-1-yl]acetamide]
4 | < 250 | 250 to 1000 | O=S(=O)(Nc1ccc(Cl)c2c(Cl)c[nH]c12)c1cnn(C(CO)CO)c1 [Compound 176, N-(3,4-dichloro-1H-indol-7-yl)-1-[2-hydroxy-1-(hydroxymethyl)ethyl]pyrazole-4-sulfonamide]
5 | < 250 | < 250 | CC(CO)(CO)n1cc(S(=O)(=O)Nc2ccc(Cl)c3c(Cl)c[nH]c23)cn1 [Compound 173, N-(3,4-dichloro-1H-indol-7-yl)-1-[2-hydroxy-1-(hydroxymethyl)-1-methyl-ethyl]pyrazole-4-sulfonamide]
6 | < 250 | < 250 | Cc1ccc(NS(=O)(=O)c2cnn(C3(C)COC3)c2F)c2[nH]cc(C#N)c12 [Compound 128, N-(3-cyano-4-methyl-1H-indol-7-yl)-5-fluoro-1-(3-methyloxetan-3-yl)pyrazole-4-sulfonamide]
7 | < 250 | 250 to 1000 | Cc1ccc(NS(=O)(=O)c2cnn(CC3(CO)COC3)c2)c2[nH]cc(C#N)c12 [Compound 106, N-(3-cyano-4-methyl-1H-indol-7-yl)-1-[[3-(hydroxymethyl)oxetan-3-yl]methyl]pyrazole-4-sulfonamide]
8 | < 250 | 250 to 1000 | N#Cc1c[nH]c2c(NS(=O)(=O)c3cnn(CC(F)(F)F)c3)ccc(F)c12 [Compound 216, N-(3-cyano-4-fluoro-1H-indol-7-yl)-1-(2,2,2-trifluoroethyl)pyrazole-4-sulfonamide]
9 | < 250 | 250 to 1000 | O=S(=O)(Nc1cccc2c(Cl)c[nH]c12)c1cnn(C(F)F)c1 [Compound 6, N-(3-chloro-1H-indol-7-yl)-1-(difluoromethyl)pyrazole-4-sulfonamide]
10 | < 250 | 250 to 1000 | N#CC1(Cn2cc(S(=O)(=O)Nc3cccc4c(Cl)c[nH]c34)cn2)CC1 [Compound 52, N-(3-chloro-1H-indol-7-yl)-1-[(1-cyanocyclopropyl)methyl]pyrazole-4-sulfonamide]
11 | < 250 | 250 to 1000 | Cc1ccc(NS(=O)(=O)c2cnn(C(C)(F)CO)c2)c2[nH]cc(C#N)c12 (stereo not shown) [Compound 293, N-(3-cyano-4-methyl-1H-indol-7-yl)-1-(1-fluoro-2-hydroxy-1-methyl-ethyl)pyrazole-4-sulfonamide]
12 | < 250 | < 250 | N#CCC1(n2cc(S(=O)(=O)Nc3ccc(Cl)c4c(Cl)c[nH]c34)cn2)COC1 [Compound 160, 1-[3-(cyanomethyl)oxetan-3-yl]-N-(3,4-dichloro-1H-indol-7-yl)pyrazole-4-sulfonamide]
13 | < 250 | 250 to 1000 | O=S(=O)(Nc1cccc2c(Cl)c[nH]c12)c1cnn(S(=O)(=O)c2cn[nH]c2)c1 [Compound 19, N-(3-chloro-1H-indol-7-yl)-1-(1H-pyrazol-4-ylsulfonyl)pyrazole-4-sulfonamide]
14 | < 250 | 250 to 1000 | Cc1ccc(NS(=O)(=O)c2cnn(S(C)(=O)=O)c2)c2[nH]cc(C#N)c12 [Compound 93, N-(3-cyano-4-methyl-1H-indol-7-yl)-1-methylsulfonyl-pyrazole-4-sulfonamide]
15 | < 250 | 250 to 1000 | CC1(n2ncc(S(=O)(=O)Nc3ccc(Cl)c4c(C#N)c[nH]c34)c2F)COC1 [Compound 130, N-(4-chloro-3-cyano-1H-indol-7-yl)-5-fluoro-1-(3-methyloxetan-3-yl)pyrazole-4-sulfonamide]
16 | < 250 | > 1000 | Cn1cc(S(=O)(=O)Nc2cccc3c(Cl)c(F)[nH]c23)cn1 [Compound 129, N-(3-chloro-2-fluoro-1H-indol-7-yl)-1-methyl-pyrazole-4-sulfonamide]
17 | < 250 | > 1000 | N#Cc1c[nH]c2c(NS(=O)(=O)c3c[nH]nc3N)ccc(F)c12 [Compound 300, 3-amino-N-(3-cyano-4-fluoro-1H-indol-7-yl)-1H-pyrazole-4-sulfonamide]
18 | < 250 | > 1000 | Cc1ccc(NS(=O)(=O)c2cnn([C@H]3CN(C(=O)OC(C)(C)C)C[C@H]3F)c2)c2[nH]cc(C#N)c12 [Compound 153, tert-butyl (3S,4R)-3-[4-[(3-cyano-4-methyl-1H-indol-7-yl)sulfamoyl]pyrazol-1-yl]-4-fluoro-pyrrolidine-1-carboxylate]
19 | < 250 | 250 to 1000 | O=S(=O)(Nc1ccc(Cl)c2c(Cl)c[nH]c12)c1cnn(C2(CO)COC2)c1 [Compound 167, N-(3,4-dichloro-1H-indol-7-yl)-1-[3-(hydroxymethyl)oxetan-3-yl]pyrazole-4-sulfonamide]
20 | < 250 | 250 to 1000 | CC(C)(O)Cn1cc(S(=O)(=O)Nc2ccc(Cl)c3c(Cl)c[nH]c23)cn1 [Compound 177, N-(3,4-dichloro-1H-indol-7-yl)-1-(2-hydroxy-2-methyl-propyl)pyrazole-4-sulfonamide]
21 | 250 to 1000 | > 1000 | O=S(=O)(Nc1cccc2c(Cl)c[nH]c12)c1cnn(-c2ccc(F)cn2)c1 [Compound 21, N-(3-chloro-1H-indol-7-yl)-1-(5-fluoro-2-pyridyl)pyrazole-4-sulfonamide]
22 | < 250 | 250 to 1000 | O=S(=O)(Nc1cccc2c(Cl)c[nH]c12)c1cnn(C2CC(O)C2)c1 (stereo not shown) [Compound 83, N-(3-chloro-1H-indol-7-yl)-1-(3-hydroxycyclobutyl)pyrazole-4-sulfonamide]
23 | < 250 | 250 to 1000 | C[C@H](C(N)=O)n1cc(S(=O)(=O)Nc2ccc(Cl)c3c(C#N)c[nH]c23)cn1 [Compound 213, (2R)-2-[4-[(4-chloro-3-cyano-1H-indol-7-yl)sulfamoyl]pyrazol-1-yl]propanamide]
24 | < 250 | < 250 | Cc1ccc(NS(=O)(=O)c2cnn(CF)c2)c2[nH]cc(C#N)c12 [Compound 70, N-(3-cyano-4-methyl-1H-indol-7-yl)-1-(fluoromethyl)pyrazole-4-sulfonamide]
25 | < 250 | < 250 | CC(CCO)n1cc(S(=O)(=O)Nc2ccc(Cl)c3c(C#N)c[nH]c23)cn1 (stereo not shown) [Compound 237, N-(4-chloro-3-cyano-1H-indol-7-yl)-1-(3-hydroxy-1-methyl-propyl)pyrazole-4-sulfonamide]
26 | < 250 | < 250 | Cc1ccc(NS(=O)(=O)c2cnn(C(C)(C)CO)c2)c2[nH]cc(C#N)c12 [Compound 198, N-(3-cyano-4-methyl-1H-indol-7-yl)-1-(2-hydroxy-1,1-dimethyl-ethyl)pyrazole-4-sulfonamide]
